From patent publication US20230255988A1 (CORNELL UNIVERSITY, priority 2020, published 2023)
“Also recorded” adds a separate entry of the source.

Legend:
Type in all cases: in vivo, human
[1] = system: brain glucose utilization; assay: FDG PET spatial covariance pattern score (SSM/PCA, CDR-derived)
Protocol: A multivariate machine learning approach was also applied to evaluate the FDG PET data (FIG. 10). Pattern-based methods have been increasingly applied to the evaluation of neurodegeneration and therapeutic response as they address the issue of complexity in comparing multiple regions and can increase signal to noise for analysis. Feature reduction was performed through use of the Scaled Subprofile Model (SSM), a form of Principal Components Analysis (PCA). The resulting components were used in regression modeling that determined spatial patterns of hypometabolism and hypermetabolism (or preservation relative to other regions) associated with the Clinical Dementia Rating (CDR) score.
Specifically, SSM by performing PCA on the PET-data array was run, with a subsequent brain-behavioral regression to derive a best-fitting pattern whose pattern scores correlates with the CDR score in a negative direction (i.e., the higher the pattern score, the lower the CDR).
To help with the imputation of the multivariate analysis, a generic multivariate decomposition was written as: Y(s,x)=w(s) v(x)+ε(s,x), where Y denotes the (log-transformed) data which depends on a participant and time index s and the voxel location x. […] The pattern score w(s) was chosen to correlate negatively with CDR across the data. The pattern v(x) is normalized to have unity Euclidean norm, i.e. ||v||=1. This means that the pattern score carries all information about the strength of the signal associated with the spatial pattern. Higher values of w(s) imply higher values of pattern-associated FDGPET signal in direct proportion in all regions.
To estimate the topographic robustness of any patterns of interest, a bootstrap resampling procedure was performed 10,000 times, for which data were resampled with replacement and the complete analytic recipe was executed on the resampled data, generating distribution for pattern loadings. […] For the correct interpretation, it is worth noting that positive and negative loadings describe only relative, and not absolute differences, in the signal associated with any covariance pattern. Since the residual signal in ε(s,x) was stripped off, there cannot be assurance that there are absolute differences in the total data for the regions with robust loadings.
After deriving and estimating the topographic robustness of the pattern, the pattern score was inspected for an effect of treatment at baseline and follow-up, also broken down by APOE ε4 status.

[2] = system: amyloid positive patients with amnestic mild cognitive impairment (aMCI) or mild dementia due to AD; assay: Safety profile / adverse events in 12-month trial
From the text: The trial duration per participant was twelve months.
Pre-screening of 634 patients at the METS at the Burke Rehabilitation Hospital excluded all but 120 participants (FIG. 1). Only eighty-three of these patients were amyloid positive. Twelve declined to participate. Seventy-one of these participants agreed to be part of the trial, and were randomized to receive either placebo or benfotiamine. Eight subjects were prematurely discontinued from the trial prior to Month 12. Three participants were withdrawn due to non-compliance <80%; three withdrew consent due to unwillingness to complete study procedures; one participant was lost to follow-up and one was withdrawn by PI due to physical limitations. None of the participants randomized to the treatment group withdrew due to adverse reactions or adverse effects. […] After the trial completion and after the data were locked, one patient in the placebo group was determined to be on benfotiamine from another source and was excluded from the per-protocol analysis.

[3] = system: amyloid positive patients with amnestic mild cognitive impairment (aMCI) or mild dementia due to AD; assay: AD Assessment Scale-Cognitive Subscale (ADAS-Cog), 12-month randomized placebo-controlled trial
From the text: ADAS-cog served as the primary endpoint. […] Assignment of patients. […] Using blocked, stratified randomization design, patients were assigned to the treatment or control group. […] Within this group, a separate randomization schedule was generated using the proc plan function in SAS statistics program for those with an MMSE greater than or less than or equal to 26 to balance their allocation patients to placebo or treatment groups. Using a block size of four for a total of seventy-six patients, 19 blocks were created to help ensure balanced recruitment into treatment and control groups within strata. The schedule was generated in advance by the statistician and provided to the blinded pharmacist in charge of executing the randomization. Two randomization worksheets stratified by MMSE were provided to the pharmacist, who randomized the patients. […] The patients were enrolled by the clinical study team and randomized by the pharmacist. The assignment to the treatment or placebo group was known only to the pharmacist and kept behind a triple lock. The patients received numbered bottles. The trial duration per participant was twelve months. […] AD Assessment Scale-Cognitive Subscale (ADAS-Cog) was the primary outcome measure. It indicates the severity of the most important symptoms of Alzheimer's disease. It consists of 11 tasks measuring the disturbances of memory, language, praxis, attention and other cognitive abilities (S. Balsis et al., Alzheimer's & Dementia, 8, 288-294, 2012; […] al., International Psychogeriatrics, 9, 123-138, 1997). The primary clinical outcome was ADAS-Cog, and secondary outcomes included the CDR score and fluorodeoxyglucose ([…]) imaging of the brain. AGE levels were an exploratory outcome. The primary analysis followed Intention-to-Treat (ITT) and the secondary analysis was per-protocol. The per-protocol analysis omitted one placebo participant who took benfotiamine from a commercial vendor. The ITT and per-protocol analysis are presented for the primary outcome ADAS-cog and the secondary measure CDR. For the other measures, only per-protocol analysis are presented. The primary analysis was done on the ITT data. The Last-Observation-Carry-Forward (LOCF) method was used to impute the missing values of ADAS total score and the secondary endpoints such as CDR as well for each time point. The primary analysis was done on ITT data which were imputed with LOCF method. Per-protocol analysis was done as a sensitivity analysis and as observational comparisons (F. J. Molnar et al., Canadian Medical Association Journal, 179, 751, 2008).

For `C/C(=C(\CCOP(=O)(O)O)SC(=O)c1ccccc1)N(C=O)Cc1cnc(C)nc1N` [benfotiamine], the “CDR-derived FDG PET pattern, treatment effect in APOE ε4 negative population” value ([1]; 12 months, p=0.019) was “treatment effect at 12 months; also recorded: show a treatment effect”, the “CDR-derived FDG PET pattern, treatment effect in APOE ε4 positive population” value ([1]; 12 months, p=0.255) was “not in APOE ε4 positive population; also recorded: do not” and the “longitudinal change in pattern score (follow-up minus baseline), treated versus untreated” value ([1]; 59 participants who completed follow-up, p=0.638) was “No difference in longitudinal change”. The “FDG PET pattern score at time point of 12 months, treatment versus untreated” value ([1]; FIG. 10A) was “slightly but significantly higher”, the “FDG PET pattern score, change from baseline to 12 months versus untreated” value ([1]; all participants, APOE status not considered) was “significantly higher change from baseline to 12 months in treated than untreated participants” and the “adverse events related to benfotiamine” value ([2]; 2×300 mg benfotiamine per day, twelve months) was “No adverse events”. For the same compound, the “safety of administration in patients with aMCI and dementia due to AD” value ([2]; overall conclusion) was “safe”, the “withdrawal due to adverse reactions or adverse effects” value ([2]; participants randomized to the treatment group) was “None” and the “Allergy, number of patients (%)” value ([2]; treatment n = 34, 12 months) was 0 (0%). For the same compound, the “Anxiety, number of patients (%)” value ([2]; treatment n = 34, 12 months) was 5 (14%), the “Bruise, number of patients (%)” value ([2]; treatment n = 34, 12 months) was 2 (6%) and the “Cold symptoms, number of patients (%)” value ([2]; treatment n = 34, 12 months) was 3 (8%). The “Depression, number of patients (%)” value ([2]; treatment n = 34, 12 months) was 1 (3%), the “Dizziness, number of patients (%)” value ([2]; treatment n = 34, 12 months) was 3 (8%) and the “Fall, number of patients (%)” value ([2]; treatment n = 34, 12 months) was 6 (17%). The “Gastrointestinal problem, number of patients (%)” value ([2]; treatment n = 34, 12 months) was 9 (26%), the “Head injury, number of patients (%)” value ([2]; treatment n = 34, 12 months) was 0 (0%) and the “Heart arrhythmia, number of patients (%)” value ([2]; treatment n = 34, 12 months) was 1 (3%). For the same compound, the “Pain, number of patients (%)” value ([2]; treatment n = 34, 12 months) was 5 (14%), the “Pneumonia, number of patients (%)” value ([2]; treatment n = 34, 12 months) was 0 (0%) and the “Sprain, number of patients (%)” value ([2]; treatment n = 34, 12 months) was 0 (0%). The “Stroke, number of patients (%)” value ([2]; treatment n = 34, 12 months) was 2 (6%), the “Surgery, number of patients (%)” value ([2]; treatment n = 34, 12 months) was 1 (3%) and the Total adverse events ([2]; treatment n = 34, 12 months, placebo 59) was 38. For the same compound, the “ADAS-cog change from baseline at 12 months” value ([3]; ITT analysis, 2×300 mg per day, 12 months, placebo 3.26) was 1.39, the “ADAS-cog unadjusted change baseline to 12 months, difference versus placebo” value ([3]; ITT, mixed effect model p=0.071, GEE p=0.137, Wilcoxon p=0.098) was “favoring benfotiamine” and the “ADAS score change Mean (SD), baseline to month 12” value ([3]; Per-protocol, unadjusted, 2×300 mg per day, placebo 3.2 (5.66)) was 0.96 (5.41). The “ADAS-cog effect modification by APOE ε4 allele carrier status” value ([3]; exploratory) was “no effect modification”, the “ADAS-cog effect modification by sex” value ([3]; exploratory, not statistically significant) was “males might have been more responsive” and the “ADAS-cog response by baseline MMSE” value ([3]; post-hoc, MMSE>=26 p=0.027, MMSE<26 p=0.99) was “stronger response among those with a higher MMSE at baseline”.
